# Test: Osmotic pressure of saturated solutions by vapor pressure osmometer
# Format: physicochemical
# Settings: Hewlett Packard vapor pressure osmometer; ±10%
# Protocol: The osmotic solute may be initially present in excess and it can be in any physical form that is compatible with the proton pump inhibitor, the dosage form, and the osmopolymer. […] In the table, the osmotic pressure π, is in atmospheres, atm. The osmotic pressure is measured in a commercially available osmometer that measures the vapor pressure difference between pure water and the solution to be analyzed and, according to standard thermodynamic principles, the vapor pressure ratio is converted into osmotic pressure difference. […] The osmometer used for the present measurements is identified as Model 320B, Vapor Pressure Osmometer, manufactured by the Hewlett Packard Co., Avondale, Pa.
row,Molecule,π value (osmotic pressure) [atm]
1,[Cl-].[Na+] [Sodium Chloride],345

# Same assay, conditions: saturated solutions at 37° C., in water
row,Osmotic Pressure in atm. [atm],Molecule
1,38,OC[C@@H](O)[C@@H](O)[C@H](O)[C@H](O)CO [Mannitol]
2,39,O=S(=O)([O-])[O-].[K+].[K+] [Potassium Sulfate]
3,31,O.O.O.O.O.O.O.O=P([O-])([O-])O.[Na+].[Na+] [Sodium Phosphate Dibasic 7 H2O]
4,31,O.O.O.O.O.O.O.O.O.O.O.O.O=P([O-])([O-])O.[Na+].[Na+] [Sodium Phosphate Dibasic 12 H2O]
5,29,O=P([O-])([O-])O.[Na+].[Na+] [Sodium Phosphate Dibasic Anhydrous]
6,36,O.O.O.O.O.O.O.O.O.O.O.O.O=P([O-])([O-])[O-].[Na+].[Na+].[Na+] [Sodium Phosphate Tribasic 12 H2O]
7,28,Sodium Phosphate Monobasic H2O

row,Molecule,Osmotic Pressure in atm. [atm]
1,O=C(CO)[C@@H](O)[C@H](O)[C@H](O)CO [Fructose],355
2,[Cl-].[K+] [Potassium Chloride],245
3,[Cl-].[Na+] [Sodium Chloride],356

# From US20090110727A1, “Extended release compositions of proton pump inhibitors” (Eisai R & D management Co., Ltd., priority 2004, published 2009)
